Columns and labels:
[1] = Polymorph stability (slurry and heating, XRPD); type: physicochemical; conditions: heating to 115° C.
Protocol: Crystalline Form II of Compound (I) was characterized using X-ray powder diffraction (XRPD) (FIG. 1A). The XRPD pattern corresponds to an anhydrous form denoted as Form II, which is highly crystalline. In addition to Form II, Compound (I) can exist as another anhydrous polymorph, denoted as Form I. The XRPD patterns of these phases are shown in FIG. 1B. A slurry experiment was performed at room temperature by adding approximately equal proportions of the two anhydrous phases to methyl-tert-butyl ether.

Sprague-Dawley rats [2] = assay: Rat forced swim test 24 hours after administration; type: in vivo; conditions: 10 mg/kg, i.p., 24 hours before test, p<0.05
Protocol: This study aimed to evaluate the duration of the antidepressant-like effects of Form II of Compound (I) using the forced swim test in male, Sprague-Dawley rats. Clinically effective antidepressant compounds reduce immobility time and increase swimming in rodents subjected to this test. Rats received Compound (I) (10 mg/kg, p.o.) or ketamine (10 mg/kg, i.p.) and 24 hours later were subjected to testing. […] The data represent mean±SEM.

[3] = patients with TRMDD; Ibrahim et al. 2012; cited from earlier work
[4] = Repeated once-daily oral dosing with food (Days 1-7) in healthy subjects, PK and PD; type: in vivo, human; conditions: oral doses up to 20 mg
Protocol: A randomized, double-blind, placebo-controlled, parallel-dose group in-patient study is conducted to investigate the pharmacodynamic (PD) effects of crystalline Form II of Compound (I) in healthy subjects.
The study is designed as a three-part, sequential study. The sequential nature of the study ensures that a range of doses are investigated first in a young, healthy population (Part 1) before proceeding to higher doses in the healthy population and the comparator populations (intermediate age and elderly) (Parts 2 and 3). For the purposes of this study, “young” refers to a subject who is 18 to 45 years of age, “intermediate age” refers to a subject who is 46 to 64 years of age, and “elderly” refers to a subject who is 65 years of age or older.
After a screening period of up to 21 days (Days −23 to −3), 16 healthy, young male and female subjects are randomly assigned to a dose group as shown in Table 9.
Each parallel dose group is balanced for gender (approximately equal number of males and females). The randomized subjects are domiciled from Day −1 through Day 8. On Day −1, the subjects receive placebo tablets in the fed state and undergo ambulatory blood pressure monitoring (ABPM) and safety assessments to establish time-matched baselines. On Days 1-7, the subjects receive the study drug in the fed state and undergo safety, pharmacokinetic (PK) and pharmacodynamics (PD) assessments. On Days 8-11, follow-up PK and safety assessments are performed.
Safety assessments include Clinician-Administered Dissociative States Scale (CADSS), Columbia-Suicide Severity Rating Scale (C-SSRS), concomitant medication, adverse event (AE) and vital sign assessments. In PK assessments, blood samples are taken and analyzed to determine PK parameters such as Cmax, Tmax, AUC0-24, and t1/2. PD assessments include ABPM, plasma brain-derived neurotrophic factor (BDNF) measurements, and Profile of Mood States (POMS) assessments.
After a screening period of up to 21 days (Days −23 to −3), 16 subjects (8 healthy, young male and female subjects, and 8 healthy, intermediate age male and female subjects) are randomly assigned to a dose group as shown in Table 10.
After a screening period of up to 21 days (Days −23 to −3), 16 subjects (8 healthy, young male and female subjects, and 8 healthy, elderly male and female subjects) are randomly assigned to a dose group as shown in Table 11.

[5] = tested on: systemic blood pressure and heart rate; assay: Blood pressure profile in chronically instrumented (telemetered) rats; type: in vivo, rat
Protocol: A single oral gavage dose was administered (volume: 5 mL/kg). […] Following the completion of the Latin square, two additional dose concentrations were evaluated (0.6 and 10 mg/kg, n=3 per group).
All IV doses were administered in manually restrained rats via tail vena-puncture. It should be noted that vehicle controls were also administered.
A 24-hour recording was performed prior to dosing (vehicle alone) and after each oral dose.

Sprague-Dawley rats [6] = assay: Acute depression model, forced swim test; type: in vivo, rat; conditions: 20 mg/kg vs vehicle
Protocol: Young, adult, male Sprague-Dawley rats were randomly assigned across the treatment groups and were administered vehicle (0.5% MC/0.02% SLS), the reference compound desipramine (20 mg/kg; a tricyclic antidepressant; Sigma, Lot #078K1326) dissolved in sterile water, or crystalline Form II of Compound (I) (0.1, 0.3, 1, 3, 10, and 30 mg/kg) suspended in 0.5% MC/0.02% SLS, twice on Day 1 (after habituation; ˜24 h prior to test, and prior to dark cycle) and once on Day 2 (30 min pre-test for desipramine and 45 min pre-test for Form II and vehicle).
Each Forced Swim chamber was constructed of clear acrylic (height, 40 cm; diameter, 20.3 cm). Rats were subjected to a pre-dose swim test of one 15-min session in cylinders containing water at 23° C.±1° C., followed approximately 24 h later by the experimental 5-min session. The water level was 16 cm deep during habituation and 30 cm deep during the test. Immobility, climbing, and swimming behaviors were recorded every 5 s for a total of 60 counts per subject. When an animal was unable to maintain a posture with its nose above water, it was immediately removed from the water and eliminated from the study. Blood was collected at the completion of swim test procedures and plasma was analyzed for Form II concentrations.

[7] = 1 mg/kg IV bolus, blocker alone

Q: Which “phase change on heating (XRPD of recovered solids)” value [1] does the source give for Cc1ccc(COC(=O)N2CC[C@H](CNc3ncccn3)[C@H](F)C2)cc1 [Form I, 4-methylbenzyl (3S, 4R)-3-fluoro-4-[(pyrimidin-2-ylamino)methyl] piperidine-1-carboxylate] here?
A: The value was “phase conversion to Form II”.

Q: Which results are given for CNC1(c2ccccc2Cl)CCCCC1=O (stereo not drawn) [ketamine, reference compound]?
A: immobility (Sprague-Dawley rats [2]): reduced immobility; swim time (Sprague-Dawley rats [2]): increased swim time significantly

Q: Which “HAM-D17 and Beck Depression Inventory (BDI)” value [3] does the source give for Cc1ccc(COC(=O)N2CC[C@H](CNc3ncccn3)[C@H](F)C2)cc1 [Compound (I), 4-methylbenzyl (3S, 4R)-3-fluoro-4-[(pyrimidin-2-ylamino)methyl] piperidine-1-carboxylate] here?
A: Its value is “showed antidepressant effects”.

Q: And the “heart rates in human studies” value [4]?
A: Its value is “have not been observed to increase to any significant degree”.

Q: And the “primary hemodynamic observation in human studies” value [4]?
A: The value was “transient increase in systolic and diastolic blood pressure”.

Q: What about the heart rate ([5]; 0.3 and 0.6 mg/kg oral) of the same molecule?
A: The heart rate was “modestly increased heart rate”.

Q: And the heart rate ([5]; between 1 and 10 mg/kg oral)?
A: Its heart rate is “increased HR dose proportionally”.

Q: And the “magnitude of change in hemodynamics compared with MK-801 (0.2 mg/kg IV)” value ([5]; oral 0.3-10 mg/kg)?
A: Its value is “significantly less than that of MK-801”.

Q: What about the arterial blood pressure ([5]; oral, dose-dependent between 0.3-1 mg/kg, plateaued at 1-10 mg/kg) of the same molecule?
A: Its arterial blood pressure is “increased arterial blood pressure transiently”.

Q: Which HR change [5, 7] does the source give for CC(C)NCC(O)COc1ccc(CC(N)=O)cc1 (stereo not drawn) [atenolol, reference compound] here?
A: Its HR change is −87±11 bpm.

Q: What about the MAP change [5, 7] of the same molecule?
A: Its MAP change is −3.3±3.1 mmHg.

Q: With CNCCCN1c2ccccc2CCc2ccccc21 [Desipramine, reference compound] as the molecule, how does the swimming behavior (Sprague-Dawley rats [6]) read?
A: Its swimming behavior is “no change”.

Q: And the immobility (Sprague-Dawley rats [6]; P<0.001)?
A: The immobility was “significantly decreased”.

Q: What about the climbing behavior (Sprague-Dawley rats [6]; P<0.01) of the same molecule?
A: Its climbing behavior is “significantly increased”.

From patent publication US12410153B2, “Compounds, compositions and methods” (Avalo Therapeutics, Inc., priority 2014, dated 2025)
